Test results published in patent publication US5278167A, “6-pyridyl substituted pyrimidine derivatives” (Brown University Research Foundation, priority 1992, dated 1994).
“Also recorded” adds a separate entry of the source. Like-named read-outs stand apart in the source and are kept apart here.

Tests used:
[1] = tested on: HCT-8.clone 10 (AZT resistant) cells; experiment: growth inhibition of HCT-8.clone 10 (AZT resistant) cells; type: cell-based, human; conditions: for inhibition at 10 µM / inhibition at 1 µM / inhibition at 100 µM: Homo sapiens, 72 hours, read-out: Percent Growth Inhibition; for inhibition at 1 µM: 5-FUra 1 micromolar; for inhibition at 100 µM: 5-FUra 100 micromolar
Description: (§1) In general, the experiments designed to assess the […] activity of 5-fluoropyrimidines in conjunction with the 6-pyridyl substituted pyrimidine are carried out as follows.
(§2) Screw cap plastic tissue culture tubes are seeded with identical numbers of cultured tumor cells (approximately 2×10^4 cells/tube) in 4.8 mL RPMI-1640 containing 10% Fetal Bovine Serum (FBS) and 2% HEPES (IM buffer solution). The cultures are incubated overnight, on their sides, at 37° C. in a nonhumidified […] incubator.
(§3) The following day, the number of cells in duplicate tubes is determined. The media is decanted, the cells rinsed with Hanks' Balanced Salt Solution (calcium, magnesium and bicarbonate free) and replaced with 4.0 mL of trypsin-EDTA solution. The tubes are incubated at 37° C. for 5 minutes, then shaken to loosen the cells from the tube walls. To each tube is then added 1.0 mL of FBS and medium (50:50) in order to stop the action of the trypsin. Clumps of cells are broken apart by forceful repipetting with a 10 mL glass pipette. The resulting single cell suspension is counted using trypan blue exclusion and the total number of cells per tube recorded as the starting cell number.
(§4) Cells suspended in RPMI/FBS are preincubated with or without BPTU for 30 minutes, followed by addition of a given dose of 5-FUra. Tables 1 and 2 present the cell growth inhibition after 72 hours incubation with varying concentrations of 5-FUra, in the presence or absence of preincubation with 10 micromolar BPTU.
(§5) Similarly, Table 2 reports the effects of 5-FUra used in conjunction with BPTU on ™HCT-8 cells.

HIV-1 = experiment: anti-HIV activity: protection of T4 lymphocytes from HIV-1 cytolysis (XTT); type: cell-based; conditions: HIV-1 in CEM cells
Description: (§6) The procedure used to test the 6-pyridyl substituted pyrimidine derivatives activity against HIV is designed to detect agents acting at any stage of the virus reproductive cycle (see Weislow et al. (1989) J. Nat'l. Cancer Inst. 81:577-586, incorporated by reference herein). The assay basically involves the killing of T4 lymphocytes by HIV. Small amounts of HIV are added to cells, and a complete cycle of virus reproduction is necessary to obtain the required cell killing. Agents that interact virions, cells, or virus gene-products to interfere with viral activities will protect cells from cytolysis. All tests are compared with at least one positive (e.g., AZT-treated) control done at the same time under identical conditions.
(§7) 1. The candidate pyrimidine derivative is dissolved in dimethyl sulfoxide then diluted 1:100 in cell culture medium before preparing serial half-log10 dilutions. T4 lymphocytes (CEM cell line) are added and after a brief interval HIV-1 is added, resulting in a 1:200 final dilution of the compound. […]
(§8) 4. Individual wells are analyzed spectrophotomically to quantitate formazan production, and in addition are viewed microscopically for detection of viable cells and confirmation of protective activity. […]
(§9) The anti-HIV activity profile of 1-benzyloxymethyl-5-ethyl-6-(α-pyridylthio) uracil determined by this procedure has been graphically represented in FIG. 1.

HCT-8 cells = experiment: growth inhibition of HCT-8 cells; type: cell-based, human; conditions: for inhibition at 10 µM / inhibition at 1 µM / inhibition at 3 µM: Homo sapiens, 72 hours; for inhibition at 1 µM: 5-FUra 1 micromolar; for inhibition at 3 µM: 5-FUra 3 micromolar
Description: as §1, §2, §3, §4, §5

[2] = toxicity to T4 lymphocytes (CEM cell line), uninfected toxicity control (XTT); type: cell-based; conditions: human, CEM cells, 6 days, read-out: toxic concentration (IC50)
Description: as §6, §7, §8, §9

[3] = with BPTU (10 micromolar) preincubated 30 minutes
[4] = with BPTU (10 micromolar) preincubated 30 minutes, read-out: Percent Growth Inhibition
[5] = without BPTU, read-out: Percent Growth Inhibition

## CCc1c(Sc2ccccn2)n(COCc2ccccc2)c(=O)[nH]c1=O [BPTU, 1-benzyloxymethyl-5-ethyl-6-(α-pyridylthio) uracil]
[1]; 5-FUra 0, with BPTU (10 micromolar) alone
  inhibition at 10 µM: 0%
[1]; alone at 10 micromolar, HCT-8.clone 10
  growth inhibitory activity alone: not shown to be growth inhibitory
[1]; combination with 5-FUra vs 5-FUra alone, HCT-8.clone 10
  inhibition of cell growth in combination with 5-FUra: more effectively than 5FUra alone
HIV-1; 8640 min
  therapeutic index (TI50): > 1.1e+06 mM
HIV-1; Human immunodeficiency virus 1, CCRF-CEM, 144 h, 6 days, XTT, read-out: effective concentration (EC50)
  EC50: 0.9 nM
HCT-8 cells; 5-FUra 0, with BPTU (10 micromolar) alone, read-out: Percent Growth Inhibition
  inhibition at 10 µM: 0%
HCT-8 cells; alone at 10 micromolar
  growth inhibitory activity alone: not shown to be growth inhibitory
HCT-8 cells; combination with 5-FUra vs 5-FUra alone
  inhibition of cell growth in combination with 5-FUra: more effectively than 5-FUra alone; also recorded: more effectively than 5FUra alone
[2]
  CC50 at 144 h: > 980 nM

## O=c1[nH]cc(F)c(=O)[nH]1 [Example 5-FUra, 5-fluorouracil]
[1]; [3]
  inhibition at 1 µM: 23%
  inhibition at 100 µM: > 100%
[1]; without BPTU
  inhibition at 1 µM: 0%
  inhibition at 100 µM: 56%
[1]; 5-FUra 10 micromolar, with BPTU (10 micromolar) preincubated 30 minutes, P<0.01
  inhibition at 10 µM: 74%
[1]; 5-FUra 10 micromolar, without BPTU
  inhibition at 10 µM: 29%
HCT-8 cells; [4]
  inhibition at 1 µM: 33%
  inhibition at 3 µM: 55%
HCT-8 cells; [5]
  inhibition at 1 µM: 0%
  inhibition at 3 µM: 9%
HCT-8 cells; 5-FUra 10 micromolar, with BPTU (10 micromolar) preincubated 30 minutes, P<0.01, read-out: Percent Growth Inhibition
  inhibition at 10 µM: 80%
HCT-8 cells; 5-FUra 10 micromolar, without BPTU, read-out: Percent Growth Inhibition
  inhibition at 10 µM: 33%
